Patent US9028845B2, “Chimeric immunomodulatory compounds and methods of using the same-IV” (Dynavax Technologies Corporation, priority 2001, dated 2015)

System: human PBMCs
Test: Human PBMC cytokine response assay (IFN-γ and IFN-α in cell-free medium by ELISA), with or without cPLGA;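 as to IFN-α (pg/ml) mean: 20 µg/mL compound for 24 hours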;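 as to IFN-γ (pg/ml) mean: 20 µg/mL compound for 24 hours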
Type: cell-based
[1] = Table 24, mean of donors 28234-28237
[2] = mean of donors 28185-28188, Table 15
[3] = mean of donors 110, 112, 119, 120, Table 14

For “(5′-TCGTCGA-3′-HEG)2-glycerol-HEG-5′-AACGTTC-3′-HEG-5′-TCGA-3′ [Compound C-97]”, the IFN-α (Table 24, donor 28234) was 16 pg/mL, the IFN-γ (Table 24, donor 28234) was 10 pg/mL and the IFN-α (Table 24, donor 28235) was 16 pg/mL. The IFN-γ (Table 24, donor 28235) was 119 pg/mL, the IFN-α (Table 24, donor 28236) was 140 pg/mL and the IFN-γ (Table 24, donor 28236) was 269 pg/mL. For the same substance, the IFN-α (Table 24, donor 28237) was 16 pg/mL, the IFN-γ (Table 24, donor 28237) was 980 pg/mL and the IFN-α mean [1] was 47 pg/mL. For the same substance, the IFN-γ mean [1] was 345 pg/mL, the “IFN-a” value (donor 28185, Table 15) was 307 pg/mL and the “IFN-g” value (donor 28185, Table 15) was 259 pg/mL. The “IFN-a” value (donor 28186, Table 15) was 71 pg/mL, the “IFN-g” value (donor 28186, Table 15) was 16 pg/mL and the “IFN-a” value (donor 28187, Table 15) was 4 pg/mL. For the same substance, the “IFN-g” value (donor 28187, Table 15) was 125 pg/mL, the “IFN-a” value (donor 28188, Table 15) was 2 pg/mL and the “IFN-g” value (donor 28188, Table 15) was 5 pg/mL. The “IFN-a (pg/ml) mean” value [2] was 96 pg/mL, the “IFN-g (pg/ml) mean” value [2] was 101 pg/mL and the “IFN-a (pg/ml) ×2” value (mean ×2, Table 15) was 192 pg/mL. For the same substance, the “IFN-g (pg/ml) ×4” value (mean ×4, Table 15) was 405 pg/mL and the “IFN-α induction, in words” value (used alone) was “reduction of IFN-α induction”.
With “5′-ACGTTCG-3′-HEG-5′-AGATGAT-3′-HEG-5′-TCGTCGA-3′ [Compound C-58]” the IFN-α (Table 13, donor 28156) was 13 pg/mL, the IFN-γ (Table 13, donor 28156) was 404 pg/mL and the IFN-α (Table 13, donor 28157) was 30 pg/mL. It also gave an IFN-γ (Table 13, donor 28157) of 288 pg/mL, an IFN-α (Table 13, donor 28158) of 29 pg/mL and an IFN-γ (Table 13, donor 28158) of 59 pg/mL. The IFN-α (Table 13, donor 28159) was 23 pg/mL, the IFN-γ (Table 13, donor 28159) was 84 pg/mL and the IFN-α mean (Table 13, mean of donors) was 24 pg/mL. The IFN-γ mean (Table 13, mean of donors) was 209 pg/mL.
In the case of “5′-TCGTCGT-3′-HEG-5′-TCGTCGT-3′-HEG-5′-TCGTCGT-3′ [Compound C-42]”, the IFN-α (Table 10, donor 28042) is reported as 0 pg/mL, the IFN-γ (Table 10, donor 28042) is reported as 198 pg/mL and the IFN-α (Table 10, donor 28043) is reported as 29 pg/mL. For the same substance, the IFN-γ (Table 10, donor 28043) was 1067 pg/mL, the IFN-α (Table 10, donor 28044) was 24 pg/mL and the IFN-γ (Table 10, donor 28044) was 4000 pg/mL. For the same substance, the IFN-α (Table 10, donor 28045) was 0 pg/mL, the IFN-γ (Table 10, donor 28045) was 37 pg/mL and the IFN-α mean (Table 10, mean of donors) was 13 pg/mL. For the same substance, the IFN-γ mean (Table 10, mean of donors) was 1326 pg/mL, the “IFN-α” value (donor 110, Table 14) was 250 pg/mL and the “IFN-γ” value (donor 110, Table 14) was 1508 pg/mL. For the same substance, the “IFN-α” value (donor 112, Table 14) was 26 pg/mL, the “IFN-γ” value (donor 112, Table 14) was 204 pg/mL and the “IFN-α” value (donor 119, Table 14) was 156 pg/mL. The “IFN-γ” value (donor 119, Table 14) was 56 pg/mL, the “IFN-α” value (donor 120, Table 14) was 36 pg/mL and the “IFN-γ” value (donor 120, Table 14) was 56 pg/mL. For the same substance, the “IFN-α (pg/ml) mean” value [3] was 117 pg/mL and the “IFN-γ (pg/ml) mean” value [3] was 456 pg/mL.
In the case of “5′-TCGTCGA-3′-(HEG)6-5′-TCGTCGA-3′ (phosphodiester linkages) [Compound C-36]”, the “activity when formulated with cPLGA, in words” value (formulated with cPLGA) is reported as “significantly more active when formulated with cPLGA” and the “immunomodulatory activity (IFN-γ / IFN-α secretion), in words” value (used alone (no cPLGA)) is reported as “inactive as CICs alone”.
For “5′-GsGs-3′-C3-5′-TGC-3′-C3-5′-ATCGAT-3′-C3-5′-GCA-3′-C3-5′-GGsGsGsGsG-3′ (s = phosphorothioate linkages, otherwise linkages are phosphodiester) [Compound C-84]”, the IFN-α (Table 11, donor 28042) was 0 pg/mL, the IFN-γ (Table 11, donor 28042) was 29 pg/mL and the IFN-α (Table 11, donor 28043) was 0 pg/mL. The IFN-γ (Table 11, donor 28043) was 23 pg/mL, the IFN-α (Table 11, donor 28044) was 5 pg/mL and the IFN-γ (Table 11, donor 28044) was 69 pg/mL. It also gave an IFN-α (Table 11, donor 28045) of 222 pg/mL, an IFN-γ (Table 11, donor 28045) of 232 pg/mL and an IFN-α mean (Table 11, mean of donors) of 57 pg/mL. For the same substance, the IFN-γ mean (Table 11, mean of donors) was 88 pg/mL.
“5′-TCCATTT-3′-HEG-5′-AACGTTC-3′-HEG-5′-TGACGTT-3′ [Compound C-61]” was tested, and the IFN-α (Table 13, donor 28156) was 3 pg/mL, the IFN-γ (Table 13, donor 28156) was 92 pg/mL and the IFN-α (Table 13, donor 28157) was 0 pg/mL. For the same substance, the IFN-γ (Table 13, donor 28157) was 179 pg/mL, the IFN-α (Table 13, donor 28158) was 47 pg/mL and the IFN-γ (Table 13, donor 28158) was 35 pg/mL. The IFN-α (Table 13, donor 28159) was 0 pg/mL, the IFN-γ (Table 13, donor 28159) was 63 pg/mL and the IFN-α mean (Table 13, mean of donors) was 13 pg/mL. For the same substance, the IFN-γ mean (Table 13, mean of donors) was 92 pg/mL and the “IFN-γ induction when formulated with cPLGA, in words” value (formulated with cPLGA) was “induced IFN-γ when formulated with cPLGA”.
Work on “5′-TGACTGTGAAGGTTAGAGATGA-3′ (SEQ ID NO: 136) (listed as DNA, chemistry not fully specified) [Compound P-8, reference compound]” yielded an IFN-α (Table 13, donor 28156) of 16 pg/mL, an IFN-γ (Table 13, donor 28156) of 255 pg/mL and an IFN-α (Table 13, donor 28157) of 9 pg/mL. The IFN-γ (Table 13, donor 28157) was 20 pg/mL, the IFN-α (Table 13, donor 28158) was 24 pg/mL and the IFN-γ (Table 13, donor 28158) was 31 pg/mL. The IFN-α (Table 13, donor 28159) was 8 pg/mL, the IFN-γ (Table 13, donor 28159) was 31 pg/mL and the IFN-α mean (Table 13, mean of donors) was 14 pg/mL. It also gave an IFN-γ mean (Table 13, mean of donors) of 84 pg/mL.
